Columns and labels:
Klebsiella pneumoniae [1] = experiment: Antibacterial activity against extended spectrum beta-lactamase producing Klebsiella pneumoniae HK14368/08 after 48 hrs by broth microdilution method; type: functional; conditions: HK14368/08, 48 h
Candida albicans [2] = experiment: Antifungal activity against Candida albicans ATCC 44859 after 48 hrs by broth microdilution method; type: functional; conditions: ATCC 44859, 48 h
[3] = test system: Trichophyton mentagrophytes; experiment: Antifungal activity against Trichophyton mentagrophytes 445 after 120 hrs by broth microdilution method; type: functional; conditions: Trichophyton mentagrophytes, 445, 120 h
Escherichia coli [4] = experiment: Antibacterial activity against Escherichia coli ATCC 8739 after 48 hrs by broth microdilution method; type: functional; conditions: ATCC 8739, 48 h
Candida tropicalis [5] = experiment: Antifungal activity against Candida tropicalis 156 after 24 hrs by broth microdilution method; type: functional; conditions: Candida tropicalis, 156, 24 h
[6] = test system: Staphylococcus epidermidis; experiment: Antibacterial activity against Staphylococcus epidermidis HK6966/08 after 48 hrs by broth microdilution method; type: functional; conditions: HK6966/08, 48 h
Pseudomonas aeruginosa [7] = experiment: Antibacterial activity against Pseudomonas aeruginosa ATCC 9027 after 48 hrs by broth microdilution method; type: functional; conditions: ATCC 9027, 48 h
[8] = test system: Staphylococcus epidermidis; experiment: Antibacterial activity against Staphylococcus epidermidis HK6966/08 after 24 hrs by broth microdilution method; type: functional; conditions: HK6966/08, 24 h
Candida albicans [9] = experiment: Antifungal activity against Candida albicans ATCC 44859 after 24 hrs by broth microdilution method; type: functional; conditions: ATCC 44859, 24 h
Mycobacterium kansasii [10] = experiment: Antimycobacterial activity against Mycobacterium kansasii isolate 6509/96 after 21 days by micromethod; type: functional; conditions: isolate 6509/96, 504 h
Klebsiella pneumoniae [11] = experiment: Antibacterial activity against Klebsiella pneumoniae HK11750/08 after 24 hrs by broth microdilution method; type: functional; conditions: HK11750/08, 24 h
Staphylococcus aureus [12] = experiment: Antibacterial activity against Staphylococcus aureus ATCC 6538 after 48 hrs by broth microdilution method; type: functional; conditions: ATCC 6538, 48 h
[13] = test system: Mycobacterium tuberculosis; experiment: Antimycobacterial activity against Mycobacterium tuberculosis H37Rv CNCTC My 331/88 after 21 days by micromethod; type: functional; conditions: H37Rv CNCTC My 331/88, 504 h
Mycobacterium kansasii [14] = experiment: Antimycobacterial activity against Mycobacterium kansasii isolate 6509/96 after 7 days by micromethod; type: functional; conditions: isolate 6509/96, 168 h
Trichosporon asahii [15] = experiment: Antifungal activity against Trichosporon asahii 1188 after 24 hrs by broth microdilution method; type: functional; conditions: Trichosporon asahii, 1188, 24 h
Staphylococcus aureus [16] = experiment: Antibacterial activity against Staphylococcus aureus ATCC 6538 after 24 hrs by broth microdilution method; type: functional; conditions: ATCC 6538, 24 h
Mycobacterium avium [17] = experiment: Antimycobacterial activity against Mycobacterium avium CNCTC My 330/80 after 14 days by micromethod; type: functional; conditions: CNCTC My 330/80, 336 h
Pichia kudriavzevii [18] = experiment: Antifungal activity against Candida krusei E28 after 48 hrs by broth microdilution method; type: functional; conditions: E28, 48 h
CHO-K1 = experiment: Cytotoxicity against CHOK1 cells after 24 hrs by MTT assay; type: cell-based; conditions: Cricetulus griseus, CHO-K1, 24 h
Aspergillus fumigatus [19] = experiment: Antifungal activity against Aspergillus fumigatus 231 after 24 hrs by broth microdilution method; type: functional; conditions: Aspergillus fumigatus, 231, 24 h
Nakaseomyces glabratus [20] = experiment: Antifungal activity against Candida glabrata 20/I after 24 hrs by broth microdilution method; type: functional
Escherichia coli [21] = experiment: Antibacterial activity against Escherichia coli ATCC 8739 after 24 hrs by broth microdilution method; type: functional; conditions: ATCC 8739, 24 h
[22] = test system: Mycobacterium tuberculosis; experiment: Antimycobacterial activity against Mycobacterium tuberculosis H37Rv CNCTC My 331/88 after 14 days by micromethod; type: functional; conditions: H37Rv CNCTC My 331/88, 336 h
Mycobacterium avium [23] = experiment: Antimycobacterial activity against Mycobacterium avium CNCTC My 330/80 after 21 days by micromethod; type: functional; conditions: CNCTC My 330/80, 504 h
[24] = test system: Trichophyton mentagrophytes; experiment: Antifungal activity against Trichophyton mentagrophytes 445 after 72 hrs by broth microdilution method; type: functional; conditions: Trichophyton mentagrophytes, 445, 72 h
Klebsiella pneumoniae [25] = experiment: Antibacterial activity against extended spectrum beta-lactamase producing Klebsiella pneumoniae HK14368/08 after 24 hrs by broth microdilution method; type: functional; conditions: HK14368/08, 24 h
Lichtheimia corymbifera [26] = experiment: Antifungal activity against Absidia corymbifera 272 after 48 hrs by broth microdilution method; type: functional; conditions: Lichtheimia corymbifera, 272, 48 h
Aspergillus fumigatus [27] = experiment: Antifungal activity against Aspergillus fumigatus 231 after 48 hrs by broth microdilution method; type: functional; conditions: Aspergillus fumigatus, 231, 48 h
Staphylococcus aureus [28] = experiment: Antibacterial activity against methicillin-resistant Staphylococcus aureus HK5996/08 after 24 hrs by broth microdilution method; type: functional; conditions: HK5996/08, 24 h
Candida tropicalis [29] = experiment: Antifungal activity against Candida tropicalis 156 after 48 hrs by broth microdilution method; type: functional; conditions: Candida tropicalis, 156, 48 h
Nakaseomyces glabratus [30] = experiment: Antifungal activity against Candida glabrata 20/I after 48 hrs by broth microdilution method; type: functional
Pseudomonas aeruginosa [31] = experiment: Antibacterial activity against Pseudomonas aeruginosa ATCC 9027 after 24 hrs by broth microdilution method; type: functional; conditions: ATCC 9027, 24 h
Mycobacterium kansasii [32] = experiment: Antimycobacterial activity against Mycobacterium kansasii CNCTC My 235/80 after 7 days by micromethod; type: functional; conditions: CNCTC My 235/80, 168 h
Mycobacterium kansasii [33] = experiment: Antimycobacterial activity against Mycobacterium kansasii CNCTC My 235/80 after 21 days by micromethod; type: functional; conditions: CNCTC My 235/80, 504 h
Lichtheimia corymbifera [34] = experiment: Antifungal activity against Absidia corymbifera 272 after 24 hrs by broth microdilution method; type: functional; conditions: Lichtheimia corymbifera, 272, 24 h
Mycobacterium kansasii [35] = experiment: Antimycobacterial activity against Mycobacterium kansasii isolate 6509/96 after 14 days by micromethod; type: functional; conditions: isolate 6509/96, 336 h
Enterococcus sp. [36] = experiment: Antibacterial activity against Enterococcus sp. HK14365/08 after 24 hrs by broth microdilution method; type: functional; conditions: HK14365/08, 24 h
Pichia kudriavzevii [37] = experiment: Antifungal activity against Candida krusei E28 after 24 hrs by broth microdilution method; type: functional; conditions: E28, 24 h
Klebsiella pneumoniae [38] = experiment: Antibacterial activity against Klebsiella pneumoniae HK11750/08 after 48 hrs by broth microdilution method; type: functional; conditions: HK11750/08, 48 h
Staphylococcus aureus [39] = experiment: Antibacterial activity against methicillin-resistant Staphylococcus aureus HK5996/08 after 48 hrs by broth microdilution method; type: functional; conditions: HK5996/08, 48 h
Mycobacterium kansasii [40] = experiment: Antimycobacterial activity against Mycobacterium kansasii CNCTC My 235/80 after 14 days by micromethod; type: functional; conditions: CNCTC My 235/80, 336 h
Trichosporon asahii [41] = experiment: Antifungal activity against Trichosporon asahii 1188 after 48 hrs by broth microdilution method; type: functional; conditions: Trichosporon asahii, 1188, 48 h
Enterococcus sp. [42] = experiment: Antibacterial activity against Enterococcus sp. HK14365/08 after 48 hrs by broth microdilution method; type: functional; conditions: HK14365/08, 48 h

COc1ccc(Cn2nnnc2-c2cc([N+](=O)[O-])cc([N+](=O)[O-])c2)cc1
15.6 µM: MIC (Staphylococcus aureus [39])
62.5 µM: MIC (Escherichia coli [4]) | MIC [6] | MIC [8] | MIC (Staphylococcus aureus [12]) | MIC (Staphylococcus aureus [16]) | MIC (Enterococcus sp. [36]) | MIC (Enterococcus sp. [42])
250 µM: MIC (Candida albicans [2]) | MIC (Candida albicans [9]) | MIC (Klebsiella pneumoniae [11]) | MIC (Pichia kudriavzevii [18]) | MIC (Klebsiella pneumoniae [25]) | MIC (Pichia kudriavzevii [37])
500 µM: MIC [3] | MIC (Candida tropicalis [5]) | MIC (Trichosporon asahii [15]) | MIC (Aspergillus fumigatus [19]) | MIC (Nakaseomyces glabratus [20]) | MIC [24] | MIC (Lichtheimia corymbifera [26]) | MIC (Aspergillus fumigatus [27]) | MIC (Candida tropicalis [29]) | MIC (Nakaseomyces glabratus [30]) | MIC (Lichtheimia corymbifera [34]) | MIC (Trichosporon asahii [41])
16 µM: MIC99 (Mycobacterium kansasii [10]) | MIC99 (Mycobacterium avium [17]) | MIC99 (Mycobacterium kansasii [32])
21 µM: IC50 (CHO-K1)
32 µM: MIC99 (Mycobacterium avium [23]) | MIC99 (Mycobacterium kansasii [33]) | MIC99 (Mycobacterium kansasii [40])
125 µM: MIC (Klebsiella pneumoniae [1]) | MIC (Escherichia coli [21]) | MIC (Klebsiella pneumoniae [38])
8 µM: MIC99 [13] | MIC99 (Mycobacterium kansasii [14]) | MIC99 [22] | MIC99 (Mycobacterium kansasii [35])
> 500 µM: MIC (Pseudomonas aeruginosa [7]) | MIC (Pseudomonas aeruginosa [31])
31.2 µM: MIC (Staphylococcus aureus [28])

CCCCCCCCCCCCn1nnc(-c2cc([N+](=O)[O-])cc([N+](=O)[O-])c2)n1
> 250 µM: MIC (Klebsiella pneumoniae [1]) | MIC (Candida albicans [2]) | MIC [3] | MIC (Escherichia coli [4]) | MIC (Candida tropicalis [5]) | MIC [6] | MIC (Pseudomonas aeruginosa [7]) | MIC [8] | MIC (Candida albicans [9]) | MIC (Klebsiella pneumoniae [11]) | MIC (Staphylococcus aureus [12]) | MIC (Trichosporon asahii [15]) | MIC (Staphylococcus aureus [16]) | MIC (Pichia kudriavzevii [18]) | MIC (Aspergillus fumigatus [19]) | MIC (Nakaseomyces glabratus [20]) | MIC (Escherichia coli [21]) | MIC [24] | MIC (Klebsiella pneumoniae [25]) | MIC (Lichtheimia corymbifera [26]) | MIC (Aspergillus fumigatus [27]) | MIC (Staphylococcus aureus [28]) | MIC (Candida tropicalis [29]) | MIC (Nakaseomyces glabratus [30]) | MIC (Pseudomonas aeruginosa [31]) | MIC (Lichtheimia corymbifera [34]) | MIC (Enterococcus sp. [36]) | MIC (Pichia kudriavzevii [37]) | MIC (Klebsiella pneumoniae [38]) | MIC (Staphylococcus aureus [39]) | MIC (Trichosporon asahii [41]) | MIC (Enterococcus sp. [42])
2 µM: MIC99 [13] | MIC99 (Mycobacterium kansasii [14])
> 200 µM: IC50 (CHO-K1)
4 µM: MIC99 (Mycobacterium kansasii [10]) | MIC99 (Mycobacterium kansasii [32]) | MIC99 (Mycobacterium kansasii [35])
16 µM: MIC99 (Mycobacterium avium [23])
8 µM: MIC99 (Mycobacterium avium [17]) | MIC99 (Mycobacterium kansasii [33]) | MIC99 (Mycobacterium kansasii [40])
1 µM: MIC99 [22]

O=[N+]([O-])c1cc(-c2nnn(Cc3cccc(Br)c3)n2)cc([N+](=O)[O-])c1
> 500 µM: MIC (Klebsiella pneumoniae [1]) | MIC (Candida albicans [2]) | MIC [3] | MIC (Escherichia coli [4]) | MIC (Candida tropicalis [5]) | MIC (Pseudomonas aeruginosa [7]) | MIC (Candida albicans [9]) | MIC (Klebsiella pneumoniae [11]) | MIC (Trichosporon asahii [15]) | MIC (Pichia kudriavzevii [18]) | MIC (Aspergillus fumigatus [19]) | MIC (Nakaseomyces glabratus [20]) | MIC (Escherichia coli [21]) | MIC [24] | MIC (Klebsiella pneumoniae [25]) | MIC (Lichtheimia corymbifera [26]) | MIC (Aspergillus fumigatus [27]) | MIC (Staphylococcus aureus [28]) | MIC (Candida tropicalis [29]) | MIC (Nakaseomyces glabratus [30]) | MIC (Pseudomonas aeruginosa [31]) | MIC (Lichtheimia corymbifera [34]) | MIC (Enterococcus sp. [36]) | MIC (Pichia kudriavzevii [37]) | MIC (Klebsiella pneumoniae [38]) | MIC (Staphylococcus aureus [39]) | MIC (Trichosporon asahii [41]) | MIC (Enterococcus sp. [42])
2 µM: MIC99 (Mycobacterium kansasii [10]) | MIC99 (Mycobacterium kansasii [33]) | MIC99 (Mycobacterium kansasii [40])
0.5 µM: MIC99 (Mycobacterium kansasii [14])
4 µM: MIC99 (Mycobacterium avium [17])
250 µM: MIC [6] | MIC [8] | MIC (Staphylococcus aureus [12]) | MIC (Staphylococcus aureus [16])
29 µM: IC50 (CHO-K1)
1 µM: MIC99 (Mycobacterium kansasii [32]) | MIC99 (Mycobacterium kansasii [35])
8 µM: MIC99 (Mycobacterium avium [23])
0.25 µM: MIC99 [13] | MIC99 [22]

From ChEMBL document CHEMBL4011590, “Structure-activity relationship studies on 3,5-dinitrophenyl tetrazoles as antitubercular agents” (Eur J Med Chem, 2017)
